Assay: Compound was tested for urinary glucose excretion (mg/24 h) at 100 mg/Kg dose of compound given perorally
Type: functional, Rattus norvegicus, Urine
Parameters: unit: mg/24 h
`CC(=O)OC[C@H]1O[C@@H](Oc2cc(C)cc(OC(C)=O)c2C(=O)CCc2ccc3occc3c2)[C@H](O)[C@@H](O)[C@@H]1O` showed a Urinary glucose excretion of 183.
For `O=C(CCc1ccc2occc2c1)c1c(O)cccc1O[C@@H]1O[C@H](CO)[C@@H](O)[C@H](O)[C@H]1O`, the Urinary glucose excretion was 321.
Work on `CC(=O)Oc1cc(C)cc(O[C@@H]2O[C@H](CO)[C@@H](O)[C@H](OC(C)=O)[C@H]2OC(C)=O)c1C(=O)CCc1ccc2occc2c1` yielded a Urinary glucose excretion of 1450.
For `O=C(CCc1ccc2occc2c1)c1c(O)c(Cl)cc(Cl)c1O[C@@H]1O[C@H](CO)[C@@H](O)[C@H](O)[C@H]1O`, the Urinary glucose excretion was 5.
In the case of `C=CCc1ccc(O[C@@H]2O[C@H](CO)[C@@H](O)[C@H](O)[C@H]2O)c(C(=O)CCc2ccc3occc3c2)c1O`, the Urinary glucose excretion is reported as 5.
For `Cc1ccc(O)c(C(=O)CCc2ccc3occc3c2)c1O[C@@H]1O[C@H](CO)[C@@H](O)[C@H](O)[C@H]1O`, the Urinary glucose excretion was 5.
For `CC(C)c1cc(O)c(C(=O)CCc2ccc3occc3c2)c(O[C@@H]2O[C@H](CO)[C@@H](O)[C@H](O)[C@H]2O)c1`, the Urinary glucose excretion was 128.
With `COc1cc(O)c(C(=O)CCc2ccc3occc3c2)c(O[C@@H]2O[C@H](CO)[C@@H](O)[C@H](O)[C@H]2O)c1` the Urinary glucose excretion was 38.
Work on `CC(=O)O[C@H]1[C@H](Oc2cc(C)cc(O)c2C(=O)CCc2ccc3occc3c2)O[C@H](CO)[C@@H](O)[C@@H]1O` yielded a Urinary glucose excretion of 482.
With `COCC(=O)OC[C@H]1O[C@@H](Oc2cc(C)cc(O)c2C(=O)CCc2ccc3occc3c2)[C@H](O)[C@@H](O)[C@@H]1O` the Urinary glucose excretion was 721.
With `CC(=O)O[C@H]1[C@H](Oc2cc(C)cc(O)c2C(=O)CCc2ccc3occc3c2)O[C@H](CO)[C@@H](O)[C@@H]1OC(C)=O` the Urinary glucose excretion was 349.
Work on `CC(=O)OC[C@H]1O[C@@H](Oc2cc(C)cc(O)c2C(=O)CCc2ccc3occc3c2)[C@H](O)[C@@H](O)[C@@H]1O` yielded a Urinary glucose excretion of 540.
`CCc1ccc(O[C@@H]2O[C@H](CO)[C@@H](O)[C@H](O)[C@H]2O)c(C(=O)CCc2ccc3occc3c2)c1O` showed a Urinary glucose excretion of 1.
`COC1(C)OC[C@H]2O[C@@H](Oc3cc(C)cc(O)c3C(=O)CCc3ccc4occc4c3)[C@H](O)[C@@H](O)[C@@H]2O1` (some centres undefined) showed a Urinary glucose excretion of 729.
For `COC(=O)O[C@H]1[C@H](O)[C@@H](O)[C@H](Oc2cc(C)cc(O)c2C(=O)CCc2ccc3occc3c2)O[C@@H]1CO`, the Urinary glucose excretion was 1407.
Molecule `COCCOC(=O)OC[C@H]1O[C@@H](Oc2cc(C)cc(O)c2C(=O)CCc2ccc3occc3c2)[C@H](O)[C@@H](O)[C@@H]1O` has a Urinary glucose excretion of 817.
Work on `Cc1cc(O)c(C(=O)CCc2ccc3occc3c2)c(O[C@@H]2O[C@H](COC(=O)OC(C)C)[C@@H](O)[C@H](O)[C@H]2O)c1` yielded a Urinary glucose excretion of 980.
`O=C(CCc1ccc2occc2c1)c1c(O)cc(Cl)cc1O[C@@H]1O[C@H](CO)[C@@H](O)[C@H](O)[C@H]1O` showed a Urinary glucose excretion of 8.
In the case of `O=C(CCc1ccc2occc2c1)c1c(O)cc(O)cc1O[C@@H]1O[C@H](CO)[C@@H](O)[C@H](O)[C@H]1O`, the Urinary glucose excretion is reported as 38.
`CCOC(=O)OC[C@H]1O[C@@H](Oc2cc(C)cc(O)c2C(=O)CCc2ccc3occc3c2)[C@H](O)[C@@H](O)[C@@H]1O` showed a Urinary glucose excretion of 805.
Molecule `CCCc1cc(O)c(C(=O)CCc2ccc3occc3c2)c(O[C@@H]2O[C@H](CO)[C@@H](O)[C@H](O)[C@H]2O)c1` has a Urinary glucose excretion of 27.
Molecule `CCc1cc(O)c(C(=O)CCc2ccc3occc3c2)c(O[C@@H]2O[C@H](CO)[C@@H](O)[C@H](O)[C@H]2O)c1` has a Urinary glucose excretion of 864.
Molecule `Cc1cc(O)c(C(=O)CCc2ccc3occc3c2)c(O[C@@H]2O[C@H](CO)[C@@H](O)[C@H](O)[C@H]2O)c1` has a Urinary glucose excretion of 935.
Molecule `COC(=O)OC[C@H]1O[C@@H](Oc2cc(C)cc(O)c2C(=O)CCc2ccc3occc3c2)[C@H](O)[C@@H](O)[C@@H]1O` has a Urinary glucose excretion of 1192.

From ChEMBL document CHEMBL1132546, “Na(+)-glucose cotransporter (SGLT) inhibitors as antidiabetic agents. 4. Synthesis and pharmacological properties of 4'-dehydroxyphlorizin derivatives substituted on the B ring” (1999)
